# Data reported in patent US6753323B2, “Topical administration of amifostine and related compounds” (MedImmune Oncology, Inc., priority 1998, dated 2004).
# What was measured:
# rectal wall of rats = details: intrarectal injection of 2% amifostine gel; cited from earlier work
# mouse skin = details: cited from earlier work
# oral mucosa of mice = details: topical in carbowax to oral mucosa; cited from earlier work
# Staphylococcus aureus [1] = test: Microbial growth inhibition, room temperature storage (20°-25° C.); format: cell-based; details: S. aureus, room temperature 20°-25° C.; for % Change: vs theoretical 0 hr count
# Experimental: (§1) Amifostine was studied for its ability to inhibit microbial growth. Clear 10 cc vials, stoppers and seals were sterilized for use in the study. Two separate procedures were performed: a refrigerated storage study (2° to 8° C.) and a room temperature storage study (20° to 25° C.). For each test portion, positive controls were prepared for each organism by placing 9.5 mL sterile 0.9% sodium chloride into separate sterile vials and inoculating each with 10^3 to 10^4 of one of the test organisms. In addition, amifostine test specimens were prepared for each test portion by reconstituting six Ethyol® vials with 0.9% sodium chloride, the contents of each of these vials were then transferred to clear sterile vials to allow for easier visual examination. One vial was designated as a negative control, and each of the remaining five vials was inoculated with 10^3 to 10^4 of one of the test organisms. All vials were protected from light throughout the test to simulate the amber Ethyol® vial.
# (§2) Positive controls, product test specimens, and a negative control were prepared. At this time, population counts were performed on each positive control. Population counts were also performed on positive controls and product test specimens at 24 and 48 hours. These samples were diluted with sterile water and plated in duplicate with a target of 30 to 300 colonies per plate. Candida albicans, Escherichia coli, Pseudomonas aeruginosa, and Staphylococcus aureus were overpoured with TSA agar and incubated at 30-35° C. for 48 hours. Aspergillus niger was overpoured with Sabouraud agar and incubated at 20-25° C. for 48 hours.
# Escherichia coli [2] = test: as above; format: cell-based; details: E. coli, room temperature 20°-25° C.; for % Change: vs theoretical 0 hr count
# Experimental: as §1, §2
# Candida albicans [3] = test: as above; format: cell-based; details: room temperature 20°-25° C.; for % Change: vs theoretical 0 hr count
# Experimental: as §1, §2
# Pseudomonas aeruginosa [4] = test: as above; format: cell-based; details: P. aeruginosa, room temperature 20°-25° C.; for % Change: vs theoretical 0 hr count
# Experimental: as §1, §2
# Aspergillus niger [5] = test: as above; format: cell-based; details: A. niger, room temperature 20°-25° C.; for % Change: vs theoretical 0 hr count
# Experimental: as §1, §2
# [6] = tested on: intestinal mucosa in patients; details: enema in Proctofoam, 100 to 450 mg, 45 minutes prior to pelvic radiation; cited from earlier work
# Staphylococcus aureus [7] = test: Microbial growth inhibition, refrigerated storage (2°-8° C.); format: cell-based; details: S. aureus, refrigerated 2°-8° C.; for % Change: vs theoretical 0 hr count
# Experimental: as §1
# as §2, with “at 24, 48” for “at 24”, “and 72” for “and 48”
# Escherichia coli [8] = test: as above; format: cell-based; details: E. coli, refrigerated 2°-8° C.; for % Change: vs theoretical 0 hr count
# Experimental: as §1
# as §2, with “at 24, 48” for “at 24”, “and 72” for “and 48”
# Candida albicans [9] = test: as above; format: cell-based; details: refrigerated 2°-8° C.; for % Change: vs theoretical 0 hr count
# Experimental: as §1
# as §2, with “at 24, 48” for “at 24”, “and 72” for “and 48”
# Pseudomonas aeruginosa [10] = test: as above; format: cell-based; details: P. aeruginosa, refrigerated 2°-8° C.; for % Change: vs theoretical 0 hr count
# Experimental: as §1
# as §2, with “at 24, 48” for “at 24”, “and 72” for “and 48”
# Aspergillus niger [11] = test: as above; format: cell-based; details: A. niger, refrigerated 2°-8° C.; for % Change: vs theoretical 0 hr count
# Experimental: as §1
# as §2, with “at 24, 48” for “at 24”, “and 72” for “and 48”
smiles,measurement,setting,value
"NCCCNCCSP(=O)(O)O [amifostine, S-2-(3-aminopropylamino)ethyl dihydrogen phosphorothioate]",tissue level of metabolite WR-1065 after topical application,rectal wall of rats,accumulation of the amifostine metabolite WR-1065 in the rectal wall
same,"radioprotective effect, topically applied","mouse skin; paste (aqueous sodium bicarbonate pH 7 and Unibase) on mouse skin, any dose studied",no radioprotective effect
same,"radioprotective effect, systemically administered","mouse skin; systemic administration, mice",effective in reducing the severity of radiation damage
same,toxicity at the dosages tested,oral mucosa of mice,no toxicity observed
same,CFU/mL in Amifostine,Staphylococcus aureus [1]; 24 hr,9.60 × 10^4 CFU/mL
same,% Change,Staphylococcus aureus [1]; 24 hr,−4.0%
same,CFU/mL in Amifostine,Staphylococcus aureus [1]; 48 hr,3.32 × 10^2 CFU/mL
same,% Change,Staphylococcus aureus [1]; 48 hr,−99.7%
same,CFU/mL in Amifostine,Escherichia coli [2]; 24 hr,2.28 × 10^3 CFU/mL
same,% Change,Escherichia coli [2]; 24 hr,−91.8%
same,CFU/mL in Amifostine,Escherichia coli [2]; 48 hr,8.55 × 10^2 CFU/mL
same,% Change,Escherichia coli [2]; 48 hr,−96.9%
same,CFU/mL in Amifostine,Candida albicans [3]; 24 hr,1.43 × 10^4 CFU/mL
same,% Change,Candida albicans [3]; 24 hr,−13.8%
same,CFU/mL in Amifostine,Candida albicans [3]; 48 hr,1.00 × 10^4 CFU/mL
same,% Change,Candida albicans [3]; 48 hr,−39.8%
same,CFU/mL in Amifostine,Pseudomonas aeruginosa [4]; 24 hr,5.22 × 10^2 CFU/mL
same,% Change,Pseudomonas aeruginosa [4]; 24 hr,−80.0%
same,CFU/mL in Amifostine,Pseudomonas aeruginosa [4]; 48 hr,0 CFU/mL
same,% Change,Pseudomonas aeruginosa [4]; 48 hr,−100%
same,CFU/mL in Amifostine,Aspergillus niger [5]; 24 hr,1.56 × 10^7 CFU/mL
same,% Change,Aspergillus niger [5]; 24 hr,+58.3%
same,CFU/mL in Amifostine,Aspergillus niger [5]; 48 hr,3.52 × 10^6 CFU/mL
same,% Change,Aspergillus niger [5]; 48 hr,−61.3%
same,"rectal mucosal damage, test group vs control group",[6],no significant differences
same,CFU/mL in Amifostine,Staphylococcus aureus [7]; 24 hr,4.75 × 10^1 CFU/mL
same,% Change,Staphylococcus aureus [7]; 24 hr,−50.0%
same,CFU/mL in Amifostine,Staphylococcus aureus [7]; 48 hr,4.75 × 10^1 CFU/mL
same,% Change,Staphylococcus aureus [7]; 48 hr,−50.0%
same,CFU/mL in Amifostine,Staphylococcus aureus [7]; 72 hr,4.75 × 10^1 CFU/mL
same,% Change,Staphylococcus aureus [7]; 72 hr,−50.0%
same,CFU/mL in Amifostine,Escherichia coli [8]; 24 hr,2.85 × 10^2 CFU/mL
same,% Change,Escherichia coli [8]; 24 hr,−70.0%
same,CFU/mL in Amifostine,Escherichia coli [8]; 48 hr,0 CFU/mL
same,% Change,Escherichia coli [8]; 48 hr,−100%
same,CFU/mL in Amifostine,Escherichia coli [8]; 72 hr,0 CFU/mL
same,% Change,Escherichia coli [8]; 72 hr,−100%
same,CFU/mL in Amifostine,Candida albicans [9]; 24 hr,3.99 × 10^3 CFU/mL
same,% Change,Candida albicans [9]; 24 hr,−63.0%
same,CFU/mL in Amifostine,Candida albicans [9]; 48 hr,2.09 × 10^3 CFU/mL
same,% Change,Candida albicans [9]; 48 hr,−80.6%
same,CFU/mL in Amifostine,Candida albicans [9]; 72 hr,7.13 × 10^3 CFU/mL
same,% Change,Candida albicans [9]; 72 hr,−34.0%
same,CFU/mL in Amifostine,Pseudomonas aeruginosa [10]; 24 hr,3.04 × 10^3 CFU/mL
same,% Change,Pseudomonas aeruginosa [10]; 24 hr,−20.0%
same,CFU/mL in Amifostine,Pseudomonas aeruginosa [10]; 48 hr,1.76 × 10^3 CFU/mL
same,% Change,Pseudomonas aeruginosa [10]; 48 hr,−53.7%
same,CFU/mL in Amifostine,Pseudomonas aeruginosa [10]; 72 hr,1.85 × 10^3 CFU/mL
same,% Change,Pseudomonas aeruginosa [10]; 72 hr,−51.3%
same,CFU/mL in Amifostine,Aspergillus niger [11]; 24 hr,1.78 × 10^5 CFU/mL
same,% Change,Aspergillus niger [11]; 24 hr,−40.7%
same,CFU/mL in Amifostine,Aspergillus niger [11]; 48 hr,1.67 × 10^5 CFU/mL
same,% Change,Aspergillus niger [11]; 48 hr,−44.3%
same,CFU/mL in Amifostine,Aspergillus niger [11]; 72 hr,1.67 × 10^5 CFU/mL
same,% Change,Aspergillus niger [11]; 72 hr,−44.3%
